Laboratory results: publication PMC6017873 (Molecules : A Journal of Synthetic Chemistry and Natural …, 2018)
“And” between values parts separate entries of the source, which are not always exact repeats. Equal values may be shown once.

How the values were obtained:
SIRT3 = target: T1, SIRT3 (Homo sapiens, UniProt Q9NTG7); assay: In vitro SIRT3 activity assay; assay type: biochemical
T1 sequence (Q9NTG7 1-399): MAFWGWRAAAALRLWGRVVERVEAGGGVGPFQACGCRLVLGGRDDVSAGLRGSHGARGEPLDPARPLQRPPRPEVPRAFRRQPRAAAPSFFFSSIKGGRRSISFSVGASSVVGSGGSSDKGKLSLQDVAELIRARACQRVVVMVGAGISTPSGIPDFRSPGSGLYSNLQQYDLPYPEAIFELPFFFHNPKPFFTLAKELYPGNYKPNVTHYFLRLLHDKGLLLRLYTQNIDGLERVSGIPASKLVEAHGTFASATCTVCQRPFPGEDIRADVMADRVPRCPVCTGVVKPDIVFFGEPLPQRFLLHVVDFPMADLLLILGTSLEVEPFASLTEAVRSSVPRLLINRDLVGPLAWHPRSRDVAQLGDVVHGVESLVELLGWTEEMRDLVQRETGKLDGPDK

B16-F10 cells = assay: Sub-G1 fraction by PI flow cytometry, B16-F10; assay type: cell-based, murine; conditions: B16-F10, 50 µM, 72 h
HDAC8 = target: T2, HDAC8 (Homo sapiens, UniProt Q9BY41); assay: Selective in vitro HDAC activity assay, recombinant HDAC8; assay type: biochemical; conditions: 100 µM
T2 sequence (Q9BY41 1-377): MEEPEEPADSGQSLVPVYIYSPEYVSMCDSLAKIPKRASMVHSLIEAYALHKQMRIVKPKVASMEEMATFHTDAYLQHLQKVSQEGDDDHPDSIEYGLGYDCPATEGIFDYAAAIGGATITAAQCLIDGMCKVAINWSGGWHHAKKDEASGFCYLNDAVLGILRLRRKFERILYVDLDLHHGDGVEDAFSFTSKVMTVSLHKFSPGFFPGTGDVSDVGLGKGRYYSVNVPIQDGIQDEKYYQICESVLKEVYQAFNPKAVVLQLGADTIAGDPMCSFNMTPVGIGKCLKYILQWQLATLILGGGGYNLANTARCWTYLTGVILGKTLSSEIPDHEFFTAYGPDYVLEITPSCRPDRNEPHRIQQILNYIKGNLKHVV
Protocol: (§1) (a) In vitro total HDAC activity was evaluated using K-562 nuclear extracts in the presence of various concentrations of eurochevalierine. (b) Selective in vitro HDAC activity assays were carried out using selected recombinant HDAC proteins in the presence of various concentrations of eurochevalierine. Results are reported as percent of DMSO vehicle control and expressed as the mean ± SD of three independent experiments. * and ** indicate p < 0.05 and p < 0.01 versus untreated cells, respectively.

SIRT2 = target: T3, SIRT2 (Homo sapiens, UniProt Q8IXJ6); assay: In vitro SIRT2 activity assay; conditions: IC50 SIRT2, mean ± SD of three independent experiments
T3 sequence (Q8IXJ6 1-389): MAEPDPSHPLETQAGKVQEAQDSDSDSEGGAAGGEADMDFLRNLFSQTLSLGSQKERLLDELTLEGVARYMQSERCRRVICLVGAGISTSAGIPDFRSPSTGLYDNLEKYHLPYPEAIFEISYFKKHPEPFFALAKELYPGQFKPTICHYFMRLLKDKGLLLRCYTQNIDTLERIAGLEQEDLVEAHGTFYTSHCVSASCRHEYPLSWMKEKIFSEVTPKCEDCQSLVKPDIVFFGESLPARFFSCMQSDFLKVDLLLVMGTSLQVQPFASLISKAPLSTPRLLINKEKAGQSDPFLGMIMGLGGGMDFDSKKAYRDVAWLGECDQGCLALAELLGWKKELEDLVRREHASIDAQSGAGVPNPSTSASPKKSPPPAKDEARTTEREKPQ

HDAC10 = target: T4, HDAC10 (Homo sapiens, UniProt Q969S8); assay: Selective in vitro HDAC activity assay, recombinant HDAC10; assay type: biochemical; conditions: 100 µM
T4 sequence (Q969S8 1-669): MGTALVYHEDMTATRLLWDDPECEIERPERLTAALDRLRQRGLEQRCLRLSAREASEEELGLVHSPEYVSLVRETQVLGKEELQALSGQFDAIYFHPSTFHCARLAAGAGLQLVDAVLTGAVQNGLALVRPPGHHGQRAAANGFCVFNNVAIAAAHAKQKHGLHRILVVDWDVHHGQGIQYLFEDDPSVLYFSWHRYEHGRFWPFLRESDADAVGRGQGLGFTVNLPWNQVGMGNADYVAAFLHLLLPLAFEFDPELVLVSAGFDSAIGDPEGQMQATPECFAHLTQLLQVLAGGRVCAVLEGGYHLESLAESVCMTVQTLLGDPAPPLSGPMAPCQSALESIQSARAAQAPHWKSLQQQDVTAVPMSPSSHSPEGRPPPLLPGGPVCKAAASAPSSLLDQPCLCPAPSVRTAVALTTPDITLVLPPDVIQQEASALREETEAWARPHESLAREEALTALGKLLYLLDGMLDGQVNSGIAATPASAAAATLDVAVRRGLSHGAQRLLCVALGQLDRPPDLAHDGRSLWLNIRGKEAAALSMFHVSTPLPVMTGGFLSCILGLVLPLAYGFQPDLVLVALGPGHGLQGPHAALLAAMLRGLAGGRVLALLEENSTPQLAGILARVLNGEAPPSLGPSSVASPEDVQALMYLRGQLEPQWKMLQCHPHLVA
Protocol: as §1

SK-MEL-28 cells = assay: Acetylation of sirtuin targets by Western blot, SK-MEL-28; assay type: cell-based, human; conditions: SK-MEL-28, 5 and 50 µM, 8 h
Protocol: Figure 5 Effect of eurochevalierine on the acetylation status of sirtuin targets. SK-MEL-28, U-373, and A-549 cells were treated with 5 and 50 µM eurochevalierine (EU) for 8 h. Acetylation of histone H4 (AcH4), histone H3 at lysine 56 (AcH3K56), and α-tubulin (Ac α-tubulin) was analyzed via Western blot. β-actin and histone H1 were used as loading controls for the analysis of total and acid extracts, respectively. SAHA (S, 1 µM) was used as a reference HDAC inhibitor. Blots are representative of three independent experiments.
Total proteins were extracted using the MPER® reagent (Thermo-scientific, Erembodegem-Aalst, Belgium) supplemented by 1× protease inhibitor cocktail (Complete EDTA-free, Roche, Prophac, Luxembourg, Luxembourg) according to manufacturer’s instructions. Histones were extracted as previously described. Western blots were carried out as previously reported.
Corresponding secondary antibodies were from Santa Cruz Biotechnology.

HDAC3 = HDAC3 (Homo sapiens, UniProt O15379); assay: Selective in vitro HDAC activity assay, recombinant HDAC3; assay type: biochemical; conditions: 100 µM
Protocol: as §1

Chain of HDAC3 (O15379 whole entry): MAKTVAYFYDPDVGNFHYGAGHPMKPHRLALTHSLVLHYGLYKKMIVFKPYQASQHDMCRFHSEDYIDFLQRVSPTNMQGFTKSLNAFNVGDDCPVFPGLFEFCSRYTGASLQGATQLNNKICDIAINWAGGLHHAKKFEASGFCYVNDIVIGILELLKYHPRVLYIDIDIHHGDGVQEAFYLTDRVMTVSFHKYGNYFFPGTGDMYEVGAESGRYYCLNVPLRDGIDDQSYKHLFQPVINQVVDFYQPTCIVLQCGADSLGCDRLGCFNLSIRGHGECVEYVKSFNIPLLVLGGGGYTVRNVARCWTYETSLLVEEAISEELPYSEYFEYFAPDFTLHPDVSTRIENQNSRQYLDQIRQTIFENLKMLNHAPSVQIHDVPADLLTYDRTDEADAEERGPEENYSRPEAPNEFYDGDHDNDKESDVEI
Chain of HDAC3 (Q9Y618 395-489 partner limits assumed): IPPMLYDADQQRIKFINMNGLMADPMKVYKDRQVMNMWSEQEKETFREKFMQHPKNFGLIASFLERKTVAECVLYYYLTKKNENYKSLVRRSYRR

`C=C(C)[C@@H]1CC[C@@H](C)[C@@]2(O)[C@@H]1C=C(C)[C@@H](OC(C)=O)[C@@H]2OC(=O)[C@H](CC(=O)c1ccccc1NC)NC=O` [Eurochevalierine, eurochevalierine] was tested, and the “remaining SIRT3 enzymatic activity compared to the control set to 100%” value (SIRT3; at 100 µM) was 59%, the IC50 (SIRT3; mean ± SD of three independent experiments) was > 100 µM and the sub-G1 fraction (B16-F10 cells) was “did not increase the sub-G1 fraction”. The “effect on HDAC8 deacetylase activity” value (HDAC8) was “without effect”, the IC50 (SIRT2) was 10 µM and ~10 µM and 10.2 µM and the “effect on HDAC10 deacetylase activity” value (HDAC10) was “without effect”. For the same compound, the “acetylation of sirtuin targets (AcH4, AcH3K56, Ac α-tubulin)” value (SK-MEL-28 cells) was “robust and dose-dependent increase” and the “induction of HDAC3 activity” value (HDAC3) was 1.5 fold.
